Assay results published in PubChem BioAssay AID1224902.
pEC50: −log10 of the molar value.

Test system: PC3 prostate cancer viability, PrestoBlue fluorescence
Assay: antiproliferative effect, PC3 prostate cancer line – cell-based, mTOR inhibitor project, dose response (AID 1224902)

pEC50: 7.43
Compound: CCOC(Cn1nc(-c2ccc3oc(N)nc3c2)c2c(N)ncnc21)OCC
